Laboratory results from the NIST ThermoML archive (doi:10.1016/j.fluid.2018.10.006).

Conditions: Fluid (supercritical or subcritical phases), Coaxial cylinder method

CCCCCC [hexane]
thermal conductivity [W/m/K]
Conditions	525.42 K	553 K
1000 kPa	–	0.04354
1120 kPa	–	0.0439
1400 kPa	–	0.04407
1500 kPa	–	0.04431
1600 kPa	–	0.04443
1700 kPa	–	0.04455
1800 kPa	–	0.0448
1900 kPa	–	0.04493
2000 kPa	–	0.04518
2100 kPa	–	0.04543
2200 kPa	–	0.04556
2300 kPa	–	0.04582
2400 kPa	–	0.04608
2500 kPa	–	0.04635
2600 kPa	–	0.04661
2700 kPa	–	0.04688
2800 kPa	–	0.04716
2900 kPa	–	0.04743
3000 kPa	–	0.04743
3100 kPa	–	0.04814
3200 kPa	–	0.04857
3300 kPa	–	0.04897
3400 kPa	–	0.04942
3500 kPa	–	0.05003
3600 kPa	–	0.0505
3700 kPa	–	0.05127
3800 kPa	–	0.05191
3900 kPa	–	0.05255
4000 kPa	–	0.05325
4100 kPa	–	0.05395
4200 kPa	–	0.05468
4268 kPa	–	0.05523
4390 kPa	–	0.05618
4700 kPa	–	0.0589
4800 kPa	–	0.05987
4900 kPa	–	0.06075
5000 kPa	–	0.06166
5300 kPa	–	0.06418
5500 kPa	–	0.06559
5800 kPa	–	0.06746
6000 kPa	–	0.06843
6300 kPa	–	0.06974
6500 kPa	–	0.07019
6800 kPa	–	0.07109
7000 kPa	–	0.0717
7200 kPa	–	0.07202
7500 kPa	–	0.07265
7800 kPa	–	0.07329
8000 kPa	–	0.07361
8300 kPa	–	0.07427
8500 kPa	–	0.07427
8800 kPa	–	0.07545
9000 kPa	–	0.07545
9250 kPa	–	0.07562
9500 kPa	–	0.07582
9800 kPa	–	0.07617
9900 kPa	0.07737	–
10000 kPa	–	0.07635
10150 kPa	0.07772	–
10200 kPa	0.07779	–
10300 kPa	0.07793	0.07652
10400 kPa	0.07804	–
10500 kPa	0.07815	0.07688
10600 kPa	0.07833	–
10800 kPa	0.07855	0.07716
11000 kPa	–	0.0773
11500 kPa	0.07941	0.07777
11600 kPa	0.07956	–
11800 kPa	0.07975	–
12000 kPa	0.07994	0.07832
12300 kPa	0.08032	0.07869
12500 kPa	0.08048	–
12870 kPa	–	0.07914
13500 kPa	–	0.07983
14000 kPa	–	0.08021
14500 kPa	–	0.08068
15000 kPa	–	0.08119
